The target in this test is Recombinant human HSD17B13 (Homo sapiens (Human), UniProt Q7Z5P4). Put plainly: HSD17B13 rapid-fire mass spectrometry assay (RF/MS assay). The class given is biochemical. Conditions: inhibition of HSD17B13; LTB4 10 μM, NAD+ 0.5 mM, RT 3 h; IC50 ranges A-E. In a few lines: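 Product 12-oxo-LTB4 and substrate LTB4 quantified by RapidFire triple-quad MS in negative mode, giving percent conversion. Reaction: 80 nM recombinant hHSD17B13, 10 μM LTB4, 0.5 mM NAD+, compound up to 100 μM, pH 7.5, RT, 3 h. Variable-slope fit gave IC50; run in duplicate.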
Sequence of Recombinant human HSD17B13 (Q7Z5P4 20-300): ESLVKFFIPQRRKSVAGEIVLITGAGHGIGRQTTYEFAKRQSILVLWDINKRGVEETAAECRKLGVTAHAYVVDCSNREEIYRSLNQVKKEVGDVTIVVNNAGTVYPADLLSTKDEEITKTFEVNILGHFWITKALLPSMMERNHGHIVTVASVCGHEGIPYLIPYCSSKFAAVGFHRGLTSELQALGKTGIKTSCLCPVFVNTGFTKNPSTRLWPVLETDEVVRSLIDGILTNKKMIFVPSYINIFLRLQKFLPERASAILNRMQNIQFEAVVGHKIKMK
Consider `COc1cc(C(=O)O)c(F)cc1NS(=O)(=O)c1csc(-c2ccc([C@H]3CC[C@@H](C(C)C)CC3)c(OC(C)C)c2F)n1` [Example 586], for which the IC50 lay within 100 to 500 nM.
`COc1ccc(NS(=O)(=O)c2cnc(-c3ccc(F)cc3)s2)cc1` [Example 42]: the IC50 lay in the range of 1000 to 100000 nM.
With `COc1cc(C(=O)O)ccc1NS(=O)(=O)c1csc(-c2ccc(-c3ccccc3)cc2F)n1` [Example 304] the figure was 500 to 1000 nM.
As to `COc1cc(C(=O)O)ccc1NS(=O)(=O)c1csc(C#Cc2ccc(C(N)=O)c(OC(F)(F)F)c2)n1` [Example 391], the IC50 was 100 to 500 nM.
Next, `COc1cc(C(=O)O)ccc1NS(=O)(=O)c1csc(C#Cc2cccs2)n1` [Example 218]: less than 100 nM.
Take `COc1cc(C(=O)O)c(F)cc1NS(=O)(=O)c1csc(-c2ccc(C3CCC(C)(C)CC3)c(OC(F)(F)F)c2)n1` [Example 540]: the IC50 was 100 to 500 nM.
As to `O=C(O)c1cnc(NS(=O)(=O)c2cnc(-c3ccc(F)cc3)s2)nc1` [Example 83], the IC50 lay within 1000 to 100000 nM.
`O=C(O)c1ccc2c(c1)CCCCN2S(=O)(=O)c1cnc(-c2ccc(F)cc2)s1` [Example 133]: the 50% inhibitory concentration (IC50) lay in the range of 1000 to 100000 nM.
Take `COc1cc(C(=O)O)ccc1NS(=O)(=O)c1cccc(-c2ccc([C@H]3CC[C@@H](C(C)(C)C)CC3)cc2)c1F` [Example 479, 4-((4′-((1s,4s)-4-(tert-butyl)cyclohexyl)-2-fluoro-[1,1′-biphenyl])-3-sulfonamido)-3-methoxybenzoic acid]: the IC50 was 100 to 500 nM.
Consider `COc1cc(C(=O)O)ccc1NS(=O)(=O)c1coc(-c2ccc([C@H]3CC[C@H](C(F)(F)F)CC3)cc2)n1` [Example 610], for which the IC50 lay within 100 to 500 nM.
Consider `COc1cc(C(=O)O)ccc1NS(=O)(=O)c1csc(N2CCCC(Nc3ccccc3)C2)n1` (stereo not drawn) [Example 261], for which the IC50 lay within 500 to 1000 nM.
Next, `COc1cc(C(=O)O)ccc1NS(=O)(=O)c1ccc(-c2ccc(C3CCCCC3)cc2)cc1` [Example 361]: 1000 to 100000 nM.
As to `COc1cc(C(=O)O)ccc1NS(=O)(=O)c1coc(-c2ccc(C3=CCC(C)(C)CC3)cc2)n1` [Example 464], the IC50 lay within 100 to 500 nM.
Turning to `COc1cc(C(=O)O)ccc1NS(=O)(=O)c1ccc(-c2ccc(C3=CCC(C)(C)CC3)cc2)s1` [Example 429, 4-((5-(4′,4′-dimethyl-2′,3′,4′,5′-tetrahydro-[1,1′-biphenyl]-4-yl)thiophene)-2-sulfonamido)-3-methoxybenzoic acid], the IC50 lay in the range of 100 to 500 nM.
As to `O=C(O)c1cnc(NS(=O)(=O)c2cnc(-c3ccc(F)cc3)s2)cn1` [Example 90], the IC50 lay in the range of 1000 to 100000 nM.
Turning to `COc1cc(C(=O)O)ccc1NS(=O)(=O)c1cnc(-c2ccc(C3CCCCC3)cc2)s1` [Example 385], the IC50 was less than 100 nM.
Consider `COc1cc(C(=O)O)ccc1NS(=O)(=O)c1csc(-c2ccc(N3CCOCC3)cc2)n1` [Example 303], for which the IC50 fell in the range of 1000 to 100000 nM.
Regarding `COc1cc(C(=O)O)ccc1NS(=O)(=O)c1csc(Nc2ccccc2)n1` [Example 163], the IC50 was in the range of 1000 to 100000 nM.
`COc1cc(C(=O)O)c(F)cc1NS(=O)(=O)c1csc(-c2cnc(C3CCC(C)(C)CC3)c(F)c2)n1` [Example 554]: the IC50 lay in the range of 100 to 500 nM.
For `COc1ccc(-c2ccc(-c3ccc(S(=O)(=O)Nc4ccc(C(=O)O)cc4OC)s3)cc2)cc1` [Example 206], the IC50 lay in the range of 100 to 500 nM.
Consider `COc1cc(C(=O)O)ccc1NS(=O)(=O)N1Cc2nc(-c3ccc4c(c3)CCCC4)sc2C1` [Example 386], for which the IC50 fell in the range of 100 to 500 nM.
Next, `COc1cc(C(=O)O)c(F)cc1NS(=O)(=O)c1csc(C#Cc2ccc(C(F)(F)F)cc2)n1` [Example 227]: less than 100 nM; `COc1cc(C(=O)O)c(F)cc1NS(=O)(=O)c1csc(-c2ccc(-c3cn[nH]c3)cc2)n1` [Example 644]: 100 to 500 nM.
For `COc1cc(C(=O)O)ccc1NS(=O)(=O)c1ccc(-c2ccc(C3CCCCC3)cc2)nc1` [Example 346], the IC50 was 1000 to 100000 nM.
Take `COc1cc(C(=O)O)c(F)cc1NS(=O)(=O)c1csc(-c2ccc(-c3ccsc3)cc2)n1` [Example 634]: the IC50 fell in the range of 100 to 500 nM.
As to `CCC[C@H]1CC[C@H](C2CC=C(c3ccc(-c4ncc(S(=O)(=O)Nc5ccc(C(=O)O)cc5OC)s4)cc3)CC2)CC1` (stereo partly drawn) [Example 709], the IC50 lay within 1000 to 100000 nM.
For the compound `COc1cc(C(=O)O)c(F)cc1NS(=O)(=O)c1csc(-c2ccc(C3=CCC(C)(C)CC3)cc2OC(F)(F)F)n1` [Example 542], the IC50 is less than 100 nM.
On to `COc1ccc(-c2ccc(S(=O)(=O)Nc3ccc(C(=O)O)cc3OC)s2)cc1` [Example 179], for which the IC50 is 100 to 500 nM.
For `COc1cc(C(=O)O)c(F)cc1NS(=O)(=O)c1csc(C#Cc2ccc(Cl)cc2)n1` [Example 228], the IC50 was less than 100 nM.
On to `COc1cc(C(=O)O)ccc1NS(=O)(=O)c1csc(-c2ccc3c(c2)OCCO3)n1` [Example 462], for which the IC50 was 100 to 500 nM.
For the compound `COc1cc(C(=O)O)c(F)cc1NS(=O)(=O)c1coc(-c2ccc([C@H]3CC[C@H](C(F)(F)F)CC3)cc2)n1` [Example 492], the IC50 was less than 100 nM.
For the compound `CCc1cc(C2=CCC(C)(C)CC2)ccc1-c1nc(S(=O)(=O)Nc2cc(F)c(C(=O)O)cc2OC)cs1` [Example 563], the IC50 was less than 100 nM.
With `O=C(O)c1cc(NS(=O)(=O)c2cnc(-c3ccc(F)cc3)s2)co1` [Example 86] the figure was 100 to 500 nM; with `COc1cc(C(=O)O)ccc1NS(=O)(=O)c1cnn(-c2ccc(F)cc2)c1` [Example 79], 1000 to 100000 nM.
In the case of `COc1cc(C(=O)O)ccc1NS(=O)(=O)c1csc(C#Cc2ccc(C(=O)O)c(OC(F)(F)F)c2)n1` [Example 394], the IC50 is 1000 to 100000 nM.
For `COc1cc(C(=O)O)c(F)cc1NS(=O)(=O)c1csc(-c2ccc(NC3CCC(C)(C)CC3)cc2)n1` [Example 631], the IC50 is less than 100 nM.
Take `COc1cc(C(=O)O)ccc1NS(=O)(=O)c1ccc(-c2ccccc2)cc1` [Example 144]: the IC50 is 100 to 500 nM.
Regarding `COc1cc(C(=O)O)ccc1NS(=O)(=O)Nc1ccc2nc(-c3ccc(F)cc3)sc2c1` [Example 328, 4-((N-(2-(4-fluorophenyl)benzo[d]thiazol-6-yl)sulfamoyl)amino)-3-methoxybenzoic acid], the IC50 is 1000 to 100000 nM.
For the compound `COc1cc(C(=O)O)c(F)cc1NS(=O)(=O)c1csc(-c2ccc([C@H]3CC[C@H](C(C)C)CC3)cc2C(F)(F)F)n1` [Example 620], the IC50 was less than 100 nM.
With `COc1cc(C(=O)O)c(F)cc1NS(=O)(=O)c1csc(-c2ccc([C@H]3CC[C@@H](C(C)C)CC3)cc2C(F)(F)F)n1` [Example 619] the figure was 100 to 500 nM.
`COc1ccc(C#Cc2nc(S(=O)(=O)Nc3ccc(C(=O)O)cc3OC)cs2)c(C(C)C)c1` [Example 399, 4-((2-((2-isopropyl-4-methoxyphenyl)ethynyl)thiazole)-4-sulfonamido)-3-methoxybenzoic acid]: the IC50 was less than 100 nM.
For `COc1cc(C(=O)O)ccc1NS(=O)(=O)c1cnc(-c2ccc(C3=CCC(c4ccccc4)CC3)cc2)s1` (stereo not drawn) [Example 451, 3-methoxy-4-((2-(2′,3′,4′,5′-tetrahydro-[1,1′:4′,1″-terphenyl]-4-yl)thiazole)-5-sulfonamido)benzoic acid], the IC50 lay in the range of 100 to 500 nM.
Regarding `COc1cc(C(=O)O)ccc1NS(=O)(=O)c1csc(-c2ccc(-c3ccc(-c4ccc5c(c4)OCCO5)cc3)cc2)n1` [Example 383], the half-inhibitory concentration (IC50) is less than 100 nM.
On to `COc1cc(C(=O)O)c(F)cc1NS(=O)(=O)c1ncc(-c2ccc([C@H]3CC[C@H](C(F)(F)F)CC3)cc2)s1` [Example 621], for which the IC50 is 100 to 500 nM.
As for `COc1cc(C(=O)O)ccc1NS(=O)(=O)c1csc(N2CCC(c3ccccc3)CC2)n1` [Example 256], the IC50 was 1000 to 100000 nM.
Next, `COc1cc(C(=O)O)ccc1NS(=O)(=O)c1ccc(-c2ccccc2O)s1` [Example 192]: 1000 to 100000 nM.
With `COc1cc(C(=O)O)ccc1NS(=O)(=O)c1csc(C#Cc2ccc(OC)c(OC(F)(F)F)c2)n1` [Example 395], the IC50 was less than 100 nM.
Consider `COc1cc(C(=O)O)c(F)cc1NS(=O)(=O)c1csc(-c2ccc([C@H]3CC[C@H](C(F)(F)F)CC3)cc2C(F)(F)F)n1` [Example 607], for which the IC50 is less than 100 nM.
For the compound `COc1cc(C(=O)O)c(F)cc1NS(=O)(=O)c1csc(C#Cc2ccccc2Cl)n1` [Example 235], the IC50 is less than 100 nM.
In the case of `COc1cc(C(=O)O)c(F)cc1NS(=O)(=O)c1csc(-c2cc(F)c(C3CCC(C)(C)CC3)cc2F)n1` [Example 519], the IC50 was in the range of 100 to 500 nM.
For `COc1cc(C(=O)O)ccc1NS(=O)(=O)c1ccc(-c2ccccc2)s1` [Example 149], the IC50 is 500 to 1000 nM.
As to `COc1cc(C(=O)O)ccc1NS(=O)(=O)c1csc(-c2cccc3c2CCCC3)n1` [Example 157], the IC50 lay in the range of 100 to 500 nM.
For the compound `COc1cc(C(=O)O)ccc1NS(=O)(=O)c1ccc2sc(-c3ccc(F)cc3)nc2c1` [Example 323], the IC50 is 1000 to 100000 nM.
With `COc1cc(C(=O)O)ccc1NS(=O)(=O)c1ccc(-c2ccc(C3CCCCC3)cc2)cc1OC(F)(F)F` [Example 325] the figure was 1000 to 100000 nM.
On to `O=C(O)c1ccc(NS(=O)(=O)c2cnc(-c3ccc(F)cc3)s2)c2c1OCCO2` [Example 116], for which the IC50 was 1000 to 100000 nM.
Take `O=C(O)c1ccc(NS(=O)(=O)c2csc(N3CCC(F)(F)CC3)n2)cc1` [Example 58]: the IC50 was 1000 to 100000 nM.
In the case of `COc1cc(C(=O)O)ccc1NS(=O)(=O)Nc1ccc(C(=O)O)cc1OC` [Example 327], the IC50 fell in the range of 1000 to 100000 nM.
Regarding `COc1cc(C(=O)O)ccc1NS(=O)(=O)N1Cc2nc(C3=CCC(C(C)(C)C)CC3)sc2C1` (stereo not drawn) [Example 362], the IC50 is 100 to 500 nM.
In the case of `COc1cc(C(=O)O)c(F)cc1NS(=O)(=O)c1csc(C2=CCC(C(C)C)CC2)n1` (stereo not drawn) [Example 800], the IC50 was 500 to 1000 nM.
Consider `COc1cc(C(=O)O)ccc1NS(=O)(=O)c1csc(N2CCN(C(=O)OC(C)(C)C)CC2)n1` [Example 305, 4-((2-(4-(tert-butoxycarbonyl)piperazin-1-yl)thiazole)-4-sulfonamido)-3-methoxybenzoic acid], for which the IC50 is 1000 to 100000 nM.

What is called IC50 is the point on the concentration scale where inhibition reaches its midpoint.
